Holding throughout (format): in vivo
Assay [1] deals with Male Sprague Dawley rats. As to the kind of experiment: Rodent CFA model of inflammatory pain (mechanical hyperalgesia, Ugo Basile paw pressure). Particulars: rat CFA model.
Assay [2] relates to Male Sprague-Dawley (Charles River) rats. As to the kind of experiment: Capsaicin-induced allodynia model (von Frey filaments). The conditions noted are these: rat. The protocol: Male Sprague-Dawley (Charles River) rats were habituated to the von Frey stands for 4 hr the day prior to the testing day. Tactile allodynia was assessed using calibrated von Frey filaments (up-down method) before and 30, 60 and 120 min post capsaicin injection. Capsaicin (30 μg in 10 μl) was diluted in Ethanol:Tween80:Saline (20:7:73) and administered into the rat left paw. The test compound is administered P.O. at 3, 10 or 30 mg/kg (4 ml/kg) 30 min prior to capsaicin administration. Data are expressed as % inhibition=(post-treatment−post-vehicle)/(pre-capsaicin threshold−post-vehicle)×100. Statistic analysis: 2-way ANOVA (time and dose) and Bonferroni post-hoc analysis comparing each dose to vehicle.

In assay [3] the test system is rats (Sprague-Dawley, Harlan). The assay is described as follows: Spared Nerve Ligation (SNL)-induced allodynia model (von Frey filaments). The conditions noted are these: rat SNL model. The protocol:
For the neuropathic pain model, rats (Sprague-Dawley, Harlan) were anesthetized with isoflurane and were placed on a heating pad. Using aseptic techniques, the L5 spinal nerve was exposed and ligated. Muscle and skin were closed with 4-0 Polydiaxone and wound clips, respectively. Animals were tested for allodynia 4 weeks post SNL surgery. Only rats that developed allodynia as defined by a significant decrease in their mechanical threshold using von Frey filaments, were used for evaluating the compound. Tactile allodynia was assessed with calibrated von Frey filaments (Stoelting Co), using an up-down paradigm before and at 2 hr and 44 hr post-compound administration. Data are expressed as % reversal=(post-treatment−post-vehicle)/(pre-SNL threshold−post-vehicle)×100.

As for `O=C(CC(c1ccccc1)c1ccccc1)N1CCNCC1` [Example 1, 1-(3,3-diphenylpropanoyl)piperazine], the reversal of hyperalgesia in assay [1] (3 mg/kg P.O., 3 hr post-dose) is 17%; in assay [1] (3 mg/kg P.O., one hour post-dose) it was 26%; in assay [1] (10 mg/kg P.O., 3 hr post-dose), 39%; in assay [1] (10 mg/kg P.O., one hour post-dose), 43%; in assay [1] (30 mg/kg P.O., 3 hr post-dose), 44%; in assay [1] (30 mg/kg P.O., one hour post-dose) it was 63%. In addition, the entries for the “maximal percent inhibition of allodynia” value in assay [2] (3 mg/kg P.O. 30 min before capsaicin challenge), in assay [2] (10 mg/kg P.O. 30 min before capsaicin challenge) and in assay [2] (30 mg/kg P.O. 30 min before capsaicin challenge) were 33%, 46% and 89%, respectively. For the same compound, the figures for the “maximal percent reversal of allodynia” value in assay [3] (3 mg/kg P.O.), in assay [3] (10 mg/kg P.O.) and in assay [3] (30 mg/kg P.O.) were 11%, 47% and 47%, respectively.

The values are drawn from patent US20080139578A1, “Substituted piperizines for the treatment of pain” (priority 2006, published 2008).
